Results on one compound are retold here after patent US7001770B1, “Calpain inhibitors and their applications” (priority 1998, dated 2006).

Square brackets hold non-standard residues; d marks the D form. Peptide text beside a SMILES is read from it. Nle = CCCC[C@H](N)C(=O)O

Holding throughout (type): cell-based
Assay [1] deals with HLF cells. Kind of assay: G0/G1 cell cycle arrest by BrdU labeling, flow cytometry. As to conditions: 5 μM CI-1 for 17 hours, 2 hour pulse; DMF control 42%. As to the method: (§1) In order to determine any increases in p53 function in response to calpain inhibitor 1, the quantity of cells undergoing G0/G1 cell cycle arrest in response to CI-1 administration, was assayed by bromodeoxyuridine labeling of cells. Each of the cell lines described in Example 2 above were exposed to a concentration of 0 or 5 μM CI-1 (in DMF) as described in Example 3 above. Cell lines treated with DMF alone or 5 μM final concentration of calpain inhibitor 1 for 17 hours were pulse labeled with a final concentration of 10 μM bromodeoxyuridine (Boehringer Mannheim) for two hours. Cells were harvested for bivariate BrdU/DNA flow cytometric analysis by fixation in 70% ethanol, followed digestion with 0.08% pepsin for 30 minutes at 37 degrees. Cells were centrifuged at 1500 RPM, and 2N HCL was added. Cells were incubated at 37 degrees for 20 minutes, followed by addition of 1M sodium borate. Cells were washed in IFA/tween 20 (0.01 M HEPES, 0.005% sodium azide, 0.5% tween 20, 5% FBS, […]), and anti-BrdU antibody, diluted 1:10 in IFA without tween 20, was added for 30 minutes. Cells were washed in IFA/tween 20, and incubated in IFA/tween 20/RNase for 15 minutes at 37 degrees.
(§2) Cells that had incorporated BrdU were stained using a FITC conjugated monoclonal antibody to BrdU (commercially available from Becton-Dickinson) and detected by FACS analysis on a FACScan FACS machine (commercially available from Becton Dickinson).

Assay [2] concerns SK-Hep1 cells. The assay is described as above. Conditions: 5 μM CI-1 for 17 hours, 2 hour pulse; DMF control 34%. As to the method: as §1, §2
For assay [3], the system named is DLD1 cells. The assay is described as above. Conditions: 5 μM CI-1 for 17 hours, 2 hour pulse; 35% without calpain treatment. The method, then:
as §1, §2

Assay [4] has as its system RKO cells. The assay is described as above. Conditions: 5 μM CI-1 for 17 hours, 2 hour pulse; DMF control 47%. As to the method: as §1, §2
Assay [5] relates to HLF cells. The experiment in a line: Apoptosis by annexin V-FITC staining, flow cytometry. Conditions: for Percent Annexin V Positive Staining: 26 hours post treatment. The method, then: P53 was administered to the cells by the use of the replication defective adenoviral vector ACN53 described in Wills, et al., supra. The effect of varying concentrations of rAd-p53 (from […] to 2×10^9 rAd-p53 particles/ml of solution) was investigated in combination with CI-1 in a range of 5–20 μm. The effects of individual and combination treatment was determined in the in DLD1, RKO, HLF and SK-Hep1 cells was investigated in substantial accordance with the teaching of Examples 2 and 3 herein. The percentage of apoptotic cells was determined at 17 hours post treatment (with the exception of U87 cells (24 hours) and HeLa cells (68 hours)) with annexin V positive staining. The results are presented in graphical format in FIG. 3 of the attached drawings. In brief, the results were as follows:
To quantitate the increased efficacy of rAd-p53 induced cell killing in tumor cell lines in response to CI-1 treatment, HLF cells were infected with increasing concentrations of rAd-p53 with or without 10 μM CI-1, and assayed for percentage apoptotic cells by annexin V-FITC staining 42 hours post-treatment in substantial accordance with the teaching of Example 3 herein. […] No increase in annexin V-FITC positive cells was detected at 1×10^5 particles/ml rAd-p53 with or without 10 μM CI-1. At 1×10^6 particles/ml rAd-p53, the percentage apoptotic cells without CI-1 was 14%, while 40% of annexin V positive cells was detected when cell were treated with 10 μM CI-1. At a concentration of 1×10^7 ACN53 particles/ml, 17% annexin V positive without and 63% with 10 μM CI-1 was detected. At 1×10^8 particles/ml, 52% were annexin V positive without and 70% positive with inhibitor treatment. At a dose of 1×10^9 particles of rAd-p53, however, the percentage annexin V positive was about the same for both 77% without and 74% with 10 μM CI-1. […] concentration of rAd-p53 was sufficient to induce approximately 50% cell death, while only a 1×10^7 particle/ml concentration rAd-p53 was needed to induce approximately the same percentage of cell death when 10 μM CI-1 as added.
The effect of an inhibitor of μ-calpains, CI-1 (N-acetyl-leu-leu-norleucinal), was investigated for its ability to enhance p53 mediated apoptosis in tumor cell lines having p53+ and p53− status listed in Table1. Each cell line was treated with 5–50 μM CI-1 for 17–26 hours. To detect a G0/G1 block, bromodeoxyuridine (BrdU) incorporation followed by flow cytometric analysis was done 17 hours post-treatment as described in Example 4 herein. […] The results of these experiments are presented in FIGS. 1 and 2 of the attached drawings. In FIG. 1, each point on the graph represents percentage annexin V positive after background percentage (DMF alone) was subtracted.
An aliquot containing approximately 1×10^6 cells of each type was placed in a T-225 flask. The effect of varying concentrations of rAd-p53 (from 1×10^7 to 2×10^9ACN53 particles/ml of solution) was investigated in combination with CI-1 in a range of 5–20 μM. In each instance, the cell line was infected with 1×10^7–1×10^9 particles/ml of cell culture with the ACN53 using the empty cassette virus (ZZCB) as a control. In each instance, the cells were exposed to the virus for a period of one hour. At the end of this time, the virus was washed off the from the cells and fresh media containing an appropriate concentration of CI-1 was added.
HLF cells were infected at increasing log concentrations of rAd-p53 ranging from 1×10^5 to 1×10^9 for one hour at which time virus was washed off and replaced with fresh media (viral infection with no treatment) or with 10 μM calpain inhibitor 1. Cells were assayed for apoptosis by annexin V-FITC staining at 24 and 42 hours post-infection.
CI-1 was obtained from Boehringer-Mannheim Biochemicals (Indianapolis, Ind.). The CI-1 containing media was prepared as follows. CI-1 was diluted in dimethylformamide (DMF) to a concentration of 33.3 μM/μl. […]

Take `CCCC[C@@H](C=O)NC(=O)[C@H](CC(C)C)NC(=O)[C@H](CC(C)C)NC(C)=O` [CI-1, N-acetyl-leu-leu-norleucinal] (Ac-Leu-Leu-[Nle]-aldehyde): the “cells incorporating BrdU label” value in assay [1] came out at 35%; in assay [2] it was 8%; in assay [4], 16%. Besides, in assay [3], the “cells incorporating BrdU” value is given as “about 25%”. In assay [5] (10 μM CI-1, 17 hours post treatment), the “Percentage of Cells Undergoing Apoptosis” value is 7%. For the same compound, the “annexin V staining” value in assay [5] (10 μM CI-1 alone, 42 hours post-treatment) was 3%. Moreover, the “Percent Annexin V Positive Staining” value in assay [5] (CI-1 10 μM) amounted to 27%; in assay [5] (CI-1 20 μM), 27%; in assay [5] (CI-1 30 μM) it was 33%; in assay [5] (CI-1 40 μM) it was 20%; in assay [5] (CI-1 50 μM), 21%. The “decrease in the particles/ml of rAd-p53 needed to induce approximately 50% cell death” value in assay [5] (treatment with 10 μM CI-1 at 42 hours) is on record as “approximately two log decrease”.
